The text below walks through data of patent US8080517B2, “Cell-permeable peptide inhibitors of the JNK signal transduction pathway” (Xigen SA, priority 2005, dated 2011).

The subject of one series is JNK. Particulars: JBDs; cited from earlier work.
Series [1] in a line: Focal cerebral ischaemia, transient MCAO model, infarct volume. The format is in vivo, male ICR-CD1 mice. The text has this:
Evaluation of neuroprotection by inventive chimeric peptides after iv administration against focal cerebral ischaemia, in a transient MCAO model (see FIG. 4).
Transient ischemia in adult mice. Using male ICR-CD1 mice (6 weeks old; 18-37 g; Harlan), we provoked ischemia by introducing a filament from the common carotid artery into the internal carotid and advancing it into the arterial circle, thereby occluding the middle cerebral artery. We measured regional cerebral blood flow by laser Doppler flowmetry, with a probe fixed on the skull throughout the ischemia until 10 min after reperfusion. Rectal temperature was measured and maintained at 37° C. The mice were killed 48 h after reperfusion. Serial cryostat sections 20 μm thick were traced using a computer-microscope system equipped with the Neurolucida program (MicroBrightField) and the volumes of the ischemic area and of the whole brain were calculated (blinded) with the Neuroexplorer program. XG−102 0.3=0.3 mg/kg,XG−102 1=1 mg/kg, XG−102 5=5 mg/kg
The infarct volume sizes (mm^3) after bolus iv administration of placebo and XG-102 0.3, […] 6 hours after reperfusion (30 minutes clamp) in an adult mice model were as follows.

Series [2] has as its system recombinant JNK1, JNK2, or JNK3 kinases. The series is described as follows: Solid phase kinase assay, phosphorylation of c-Jun, ATF2 and Elk1 by recombinant JNKs. Type of series: biochemical. As for the experimental part: (§1) The effects of the peptides on JNKs-mediated phosphorylation of their target transcription factors were investigated in vitro. Recombinant and non activated JNK1, JNK2 and JNK3 were produced using a TRANSCRIPTION AND TRANSLATION rabbit reticulocyte lysate kit (Promega) and used in solid phase kinase assays with c-Jun, ATF2 and Elk1, either alone or fused to glutathione-S-transferase (GST), as substrates. Dose response studies were performed wherein inventive L-TAT or L-TAT-IB1(s) peptides (0-25 μM) were mixed with the recombinant JNK1, JNK2, or JNK3 kinases in reaction buffer (20 mM Tris-acetate, 1 mM EGTA, 10 mM p-nitrophenyl-phosphate (pNPP), 5 mM sodium pyrophosphate, 10 mM p-glycerophosphate, 1 mM dithiothreitol) for 20 minutes. The kinase reactions were then initiated by the addition of 10 mM MgCl2 and 5 pCi […] and 1 μg of either GST-Jun (aa 1-89), GST-AFT2 (aa 1-96) or GST-ELK1 (aa 307-428). GST-fusion proteins were purchased from Stratagene (La Jolla, Calif.).
Ten μL of glutathione-agarose beads were also added to the mixture. Reaction products were then separated by SDS-PAGE on a denaturing 10% polyacrylamide gel. Gels were dried and subsequently exposed to X-ray films (Kodak). […] The ability of D-TAT, inventive D-TAT-IB1(s) and inventive L-TAT-IB1(s) peptides (0-250 μM dosage study) to inhibit GST-Jun (aa 1-73) phosphorylation by recombinant JNK1, JNK2, and JNKS by were analyzed as described above. Overall, D-TAT-IB1(s) peptide decreased JNK-mediated phosphorylation of c-Jun, but at levels approximately 10-20 fold less efficiently than L-TAT-IB1(s).

In a further series the target is T1, JNK3 (Homo sapiens, UniProt P53779).
T1 construct: host or cells: cell-free: rabbit reticulocyte lysate transcription/translation
T1 sequence (P53779 whole entry, species assumed): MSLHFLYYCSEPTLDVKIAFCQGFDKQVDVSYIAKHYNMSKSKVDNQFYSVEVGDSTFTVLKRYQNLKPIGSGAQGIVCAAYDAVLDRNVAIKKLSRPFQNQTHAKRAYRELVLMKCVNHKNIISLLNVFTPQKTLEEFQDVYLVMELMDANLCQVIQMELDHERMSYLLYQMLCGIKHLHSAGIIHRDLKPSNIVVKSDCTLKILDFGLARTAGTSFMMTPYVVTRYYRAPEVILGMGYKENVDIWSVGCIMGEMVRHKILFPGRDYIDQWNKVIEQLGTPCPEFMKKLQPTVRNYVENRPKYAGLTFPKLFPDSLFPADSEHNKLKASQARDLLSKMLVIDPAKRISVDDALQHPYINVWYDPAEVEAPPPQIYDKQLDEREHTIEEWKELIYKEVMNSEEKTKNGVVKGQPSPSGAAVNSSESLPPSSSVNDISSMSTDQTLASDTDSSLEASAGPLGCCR
The series is described as follows: Solid phase kinase assay, JNK3 phosphorylation of Elk1. Particulars: dose response 0-25 μM, GST-ELK1 (aa 307-428). The format is biochemical. The procedure:
as §1
Ten μL of glutathione-agarose beads were also added to the mixture. Reaction products were then separated by SDS-PAGE on a denaturing 10% polyacrylamide gel. […] The ability of D-TAT, inventive D-TAT-IB1(s) and inventive L-TAT-IB1(s) peptides (0-250 μM dosage study) to inhibit GST-Jun (aa 1-73) phosphorylation by recombinant JNK1, JNK2, and JNKS by were analyzed as described above. […]

The next series has as its system activated JNKs. The series is described as follows: c-Jun phosphorylation by activated JNKs pulled down with GST-Jun from UV-light irradiated HeLa cells or IL-1β treated βTC-3 cells. Type of series: biochemical. Particulars: peptide 25 μM for 20 minutes. As for the experimental part: The effects of the L-TAT or inventive L-TAT-IB1(s) peptides on JNKs activated by stressful stimuli were evaluated using GST-Jun to pull down JNKs from UV-light irradiated HeLa cells or IL-1 β treated PTC cells. PTC cells were cultured as described above. HeLa cells were cultured in DMEM medium supplemented with 10% Fetal Calf Serum, 100 μg/mL Streptomycin, 100 units/ml Penicillin and 2 mM Glutamine. One hour prior to being used for cell extract preparation, PTC cells were activated with IL-1 β as described above, whereas HeLa cells were activated by UV-light (20 J/m^2). Cell extracts were prepared from control, UV-light irradiated HeLa cells and IL-1β treated βTC-3 cells by scraping the cell cultures in lysis buffer (20 mM Tris-acetate, 1 mM EGTA, 1% Triton X-100, 10 mM p-nitrophenyl-phosphate, 5 mM sodium pyrophosphate, 10 mMP-glycerophosphate, 1 mM dithiothreitol). Debris was removed by centrifugation for five minutes at 15,000 rpm in an SS-34 Beckman rotor. One-hundred μg extracts were incubated for one hour at room temperature with one μg GST-jun (amino acids 1-89) and 10 μL of glutathione-agarose beads (Sigma). Following four washes with the scraping buffer, the beads were resuspended in the same buffer supplemented with L-TAT or inventive L-TAT-IB1(s) peptides (25 μM) for 20 minutes. […]

The next series concerns JNK signaling. The series is described as follows: Heterologous GAL4 system (GAL-Jun / 5xGAL-LUC luciferase reporter) in HeLa cells with MKK4/MKK7 activation of JNK. Type of series: cell-based. Particulars: peptide 1 μM. From the text: To determine whether the inventive cell-permeable peptides could block JNK signaling in vivo, we used a heterologous GAL4 system. HeLa cells, cultured as described above, were co-transfected with the 5×GAL-LUC reporter vector together with the GAL-Jun expression construct (Stratagene) comprising the activation domain of c-Jun (amino acids 1-89) linked to the GAL4 DNA-binding domain. Activation of JNK was achieved by the co-transfection of vectors expressing the directly upstream kinases MKK4 and MKK7 (see Whitmarsh et al., Science 285: 1578 (1999)). Briefly, 3×10^5 cells were transfected with the plasmids in 3.5-cm dishes using DOTAP (Boehringer Mannheim) following instructions from the manufacturer. For experiments involving GAL-Jun, 20 ng of the plasmid was transfected with 1 μg of the reporter plasmid pFR-Luc (Stratagene) and 0.5 μg of either MKK4 or MKK7 expressing plasmids. Three hours following transfection, cell media were changed and TAT and TAT-IB1(s) peptides (1 μM) were added. The luciferase activities were measured 16 hours later using the “Dual Reporter System” from Promega after normalization to protein content. […] Because HeLa cells express JNK1 and JNK2 isoforms but not JNK3, we transfected cells with JNK3.

For another series, the system named is βTC-3 cells. The series is described as follows: IL-1β induced pancreatic β-cell death, peptide treatment, propidium iodide / Hoechst 33342 staining. Type of series: cell-based. As for the experimental part:
We investigated the effects of the inventive L-TAT-IB(s) peptides on the promotion of β-cell apoptosis elicited by IL-1. βTC-3 cell cultures were incubated for 30 minutes with 1 μM of inventive L-TAT-IB1(s) peptides followed by 10 ng/mL of IL-1. A second addition of peptide (1 μM) was performed 24 hours later. Apoptotic cells were counted after two days of incubation with IL-1 β using propidium iodide (red stained cell are dead cells) and Hoechst 33342 (blue stained cell are cells with intact plasma membrane) nuclear staining.
Long term inhibition of IL-1 induced cells death was examined by treating βTC-3 cells as described above, except that incubation of the cells with the peptides and IL-1 β was sustained for 12 days. Additional peptides (1 μM) were added each day and additional IL-1 β (10 ng/mL) was added every 2 days. […] Taken together, these experiments provide evidence that inventive TAT-IB(s) peptides are biologically active molecules able to prevent the effects of JNK signaling on cell fate.
Inhibition of IL-1 β induced pancreatic β-cell death by the inventive D-TAT-IB1(s) peptide was analyzed. βTC-3 cells were incubated as described above for 30 minutes with one single addition of the indicated peptides (1, μM), then IL-1 (10 ng/ml) was added.
Apoptotic cells were then counted after two days of incubation with IL-1 β by use of Propidium Iodide and Hoechst 33342 nuclear staining. A minimum of 1,000 cells were counted for each experiment. Standard Error of the Means (SEM) are indicated, n=5.
Long term inhibition of IL-1P induced cell-death by the D-TAT-IB1 peptide was also analyzed. βTC-3 cells were incubated as above for 30 minutes with one single addition of the indicated peptides (1 μM), then IL-1 β (10 ng/ml) was added, followed by addition of the cytokine every two days. Apoptotic cells were then counted after 15 days of incubation with IL-1 by use of propidium iodide and Hoechst 33342 nuclear staining. […] A minimum of 1.000 cells were counted for each experiment.

The subject of another series is βTC-3 cell cultures. The format is cell-based. As for the experimental part:
The ability of the L- and D-enantiomeric forms of TAT and inventive TAT-IB1(s) peptides (“TAT-IB peptides”) to enter cells was evaluated. L-TAT, D-TAT, inventive L-TAT-IB1(s), and inventive D-TAT-IB1(s) peptides [SEQ ID NOs: 5, 6, 9 and 12, respectively] were labeled by N-terminal addition of a glycine residue conjugated to fluorescein. Labeled peptides (1 μM) were added to βTC-3 cell cultures, which were maintained as described in Example 3. At predetermined times cells were washed with PBS and fixed for five minutes in ice-cold methanol-acetone (1:1) before being examined under a fluorescence microscope. Fluorescein-labeled BSA (1 μM, 12 moles/mole BSA) was used as a control.
Little to no signal was present at 48 hours.
Fluorescent signals from these all-D retro-inverso peptides were still very strong 1 week later, and the signal was only slightly diminished at 2 weeks post treatment.

[ ]: non-standard residue; d: D form.

“IPSPSVEEPH KHRPTTLRLT TLGAQDS (IPSPSVEEPHKHRPTTLRLTTLGAQDS) [1B2-long]”: in the series with JNK, the “efficiency in binding JNK relative to c-Jun or ATF2” value was “approximately 100 fold”.

Turning to “NH2-DQSRPVQPFLNLTTPRKPRPPRRRQRRKKRG-COOH (H-[dD][dQ][dS][dR][dP][dV][dQ][dP][dF][dL][dN][dL][dT][dT][dP][dR][dK][dP][dR][dP][dP][dR][dR][dR][dQ][dR][dR][dK][dK][dR]G-OH) [XG102]”, the “infarct volume sizes, moyenne” value in series [1] (0.3 mg/kg bolus iv 6 hours after reperfusion (30 minutes clamp), n = 5, 48 h after reperfusion) amounted to 16 mm^3; in series [1] (1 mg/kg bolus iv 6 hours after reperfusion (30 minutes clamp), n = 1, 48 h after reperfusion) it was 16 mm^3; in series [1] (XG102 3 group, bolus iv 6 hours after reperfusion (30 minutes clamp), n = 5, 48 h after reperfusion), 15 mm^3.

Consider “NH2-GRKKRRQRRRPPRPKRPTTLNLFPQVPRSQD-COOH (H-GRKKRRQRRRPPRPKRPTTLNLFPQVPRSQD-OH) [TAT-IB(s)]”, for which the “inhibition of JNK family phosphorylation of target transcription factors, overall” value in series [2] is listed as “superior effects in inhibiting JNK family phosphorylation of their target transcription factors”. Further, the “peptide dose giving nearly complete inhibition of c-Jun, ATF2 and Elk1 phosphorylation by JNKs” value in series [2] (dose response 0-25 μM, GST-Jun (aa 1-89), GST-AFT2 (aa 1-96), GST-ELK1 (aa 307-428)) was at least 2.5 µM. Besides, the “inhibition of JNK3 phosphorylation of Elk1” value with JNK3 is listed as “absence of TAT-IB(s) inhibition of JNKS phosphorylation of Elk1”. Besides, the “prevention of c-Jun phosphorylation by activated JNKs” value in the series with activated JNKs is on record as “efficiently prevented phosphorylation of c-Jun by activated JNKs”. Moreover, in the series with JNK signaling (HeLa cells transfected with JNK3), the “activation of c-Jun (luciferase) in cells transfected with JNK3” value is listed as “inhibited JNK2 mediated activation of c-Jun”. Besides, the “activation of c-Jun (luciferase) following MKK4 and MKK7 mediated activation of JNK” value in the series with JNK signaling (luciferase 16 hours later) was “blocked activation of c-Jun following MKK4 and MKK7 mediated activation of JNK”. Moreover, the “inhibition of IL-1 induced apoptosis” value with βTC-3 cells (1 μM, second addition at 24 hours, IL-1 10 ng/mL, two days) is listed as “inhibited IL-1-induced apoptosis of βTC-3 cells”. The “long term inhibition of IL-1 induced cell death” value with βTC-3 cells (12 days, peptide 1 μM added each day, IL-1β 10 ng/mL every 2 days) is “confers strong protection against apoptosis”. Further, the “long term inhibition of IL-1β induced cell-death” value in the series on βTC-3 cells (one single addition 1 μM, IL-1β 10 ng/ml every two days, 15 days, listed as TAT-IB 1) was “does not confer long-term protection”.

With “NH2-RRRQRRKKRG-COOH (D-amino acids) [D-TAT, reference compound]”, in the series on βTC-3 cell cultures, the “stability inside the cells” value was “extremely stable inside the cells”.

As to “PGTGCGDTYR PKRPTTLNLF PQVPRSQDT (PGTGCGDTYRPKRPTTLNLFPQVPRSQDT) [IB1-long]”, the “efficiency in binding JNK relative to c-Jun or ATF2” value in the series with JNK was “approximately 100 fold”.

In the case of “TDQSRPVQPFLNLTTPRKPRYTDPPRRRQRRKKRG (TDQSRPVQPFLNLTTPRKPRYTDPPRRRQRRKKRG) [D-TAT-IB1, reference compound]”, the “inhibition of IL-1β induced apoptosis” value in the series on βTC-3 cells (one single addition 1 μM, IL-1 10 ng/ml, two days, n=5) is “decreased IL-1 induced apoptosis to a similar extent as L-TAT-IB peptides”.
